Reference: PubChem BioAssay AID330 (DTP/NCI, 2004)
Values joined by “and” are separate entries in the source; they are usually repeats but may differ in a detail not shown here. Identical values can stand only once. Toxic doses and inconclusive results are not listed. The calls were made as follows: active = survival T/C of 150% or more; inactive = T/C below 125% in these data.

Test system: P388 leukemia ip, CD2F1 mice, survival T/C
Assay: NCI In Vivo Anticancer Drug Screen. Data for tumor model P388 Leukemia (intraperitoneal) in CD2F1 (CDF1) mice
Conditions: endpoint: median survival time, higher = longer survival
How it was run: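 Mice carrying the transplanted tumor received test compound or vehicle. Survival was recorded in each group, and the value is the treated-group measurement divided by that of the vehicle-treated control group.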

[1] = dose: 50.0 mg/kg/injection, schedule: Q01DX005 (ip), vehicle: Klucel (hydroxypropylcellulose) (HPC)
[2] = dose: 100.0 mg/kg/injection, schedule: Q01DX005 (ip), vehicle: Klucel (hydroxypropylcellulose) (HPC)
[3] = dose: 100.0 mg/kg/injection, schedule: Q01DX001 (ip), vehicle: saline
[4] = dose: 200.0 mg/kg/injection, schedule: Q01DX001 (ip), vehicle: saline
[5] = dose: 400.0 mg/kg/injection, schedule: Q01DX001 (ip), vehicle: saline
[6] = dose: 50.0 mg/kg/injection, schedule: Q01DX009 (ip), vehicle: saline
[7] = dose: 100.0 mg/kg/injection, schedule: Q01DX009 (ip), vehicle: saline
[8] = dose: 200.0 mg/kg/injection, schedule: Q01DX009 (ip), vehicle: saline
[9] = dose: 50.0 mg/kg/injection, schedule: Q01DX005 (ip), vehicle: saline with Tween-80
[10] = dose: 100.0 mg/kg/injection, schedule: Q01DX005 (ip), vehicle: saline with Tween-80
[11] = dose: 200.0 mg/kg/injection, schedule: Q01DX005 (ip), vehicle: saline with Tween-80
[12] = dose: 50.0 mg/kg/injection, schedule: Q01DX009 (ip), vehicle: saline with Tween-80
[13] = dose: 100.0 mg/kg/injection, schedule: Q01DX009 (ip), vehicle: saline with Tween-80

Measured: T/C

O=C(OC1CC2CCCCC2CC1(O)c1ccccc1)c1cccc(Cl)c1 (configuration not stated)
inactive: dose: 100.0 mg/kg/injection, schedule: Q01DX001 (ip), vehicle: acetone 99 % of control | dose: 200.0 mg/kg/injection, schedule: Q01DX001 (ip), vehicle: acetone 103 % of control | dose: 400.0 mg/kg/injection, schedule: Q01DX001 (ip), vehicle: acetone 104 % of control

C=C1C(=O)OC2(C)CCC1CC1OC1(C)CC/C=C(\C)CCC2OC(C)=O (configuration not stated)
inactive: dose: 37.5 mg/kg/injection, schedule: Q01DX001 (ip), vehicle: Klucel (hydroxypropylcellulose) (HPC) 94 % of control | dose: 75.0 mg/kg/injection, schedule: Q01DX001 (ip), vehicle: Klucel (hydroxypropylcellulose) (HPC) 92 % of control | dose: 150.0 mg/kg/injection, schedule: Q01DX001 (ip), vehicle: Klucel (hydroxypropylcellulose) (HPC) 91 % of control | dose: 300.0 mg/kg/injection, schedule: Q01DX001 (ip), vehicle: Klucel (hydroxypropylcellulose) (HPC) 88 % of control

COC(=O)[C@H]1[C@H]2C[C@@H]3c4[nH]c5cc(OC)ccc5c4CCN3C[C@H]2C[C@@H](OC(=O)c2cccc(N(C)C)c2)[C@@H]1OC
inactive: dose: 12.5 mg/kg/injection, schedule: Q01DX005 (ip), vehicle: Klucel (hydroxypropylcellulose) (HPC) 95 % of control | dose: 25.0 mg/kg/injection, schedule: Q01DX005 (ip), vehicle: Klucel (hydroxypropylcellulose) (HPC) 94 % of control | [1] 116 % of control | [2] 86 % of control

O=C(c1ccc(OCC(O)CN2CCN(c3ccccc3)CC2)cc1)c1cc2ccccc2c2ccccc12 (configuration not stated)
inactive: dose: 100.0 mg/kg/injection, schedule: Q04DX003 (ip), vehicle: alcohol 106 % of control | dose: 100.0 mg/kg/injection, schedule: Q04DX003 (ip), vehicle: other 109 % of control | dose: 200.0 mg/kg/injection, schedule: Q04DX003 (ip), vehicle: alcohol 120 % of control | dose: 200.0 mg/kg/injection, schedule: Q04DX003 (ip), vehicle: other 105 % of control

CC1CNC2(c3ccccc3)CSC=C(c3ccccc3)N12 (configuration not stated)
inactive: dose: 100.0 mg/kg/injection, schedule: Q04DX002 (ip), vehicle: saline with Tween-80 98 % of control | dose: 200.0 mg/kg/injection, schedule: Q04DX002 (ip), vehicle: saline with Tween-80 101 % of control | dose: 400.0 mg/kg/injection, schedule: Q04DX002 (ip), vehicle: saline with Tween-80 102 % of control

Cc1ccnc(NS(=O)(=O)c2ccc(Nc3c4ccccc4nc4cc(Cl)ccc34)cc2)n1
inactive: dose: 100.0 mg/kg/injection, schedule: Q04DX003 (ip), vehicle: Klucel (hydroxypropylcellulose) (HPC) 104 % of control and 114 % of control | dose: 200.0 mg/kg/injection, schedule: Q04DX003 (ip), vehicle: Klucel (hydroxypropylcellulose) (HPC) 106 % of control and 118 % of control | dose: 400.0 mg/kg/injection, schedule: Q04DX003 (ip), vehicle: Klucel (hydroxypropylcellulose) (HPC) 124 % of control

O=C1c2c3c(c4c(c2C(=O)c2c5c(c6c(c21)CCC6)CCC5)CCCC4)CCCC3
inactive: dose: 20.0 mg/kg/injection, schedule: Q01DX009 (ip), vehicle: saline with Tween-80 100 % of control | dose: 40.0 mg/kg/injection, schedule: Q01DX009 (ip), vehicle: saline with Tween-80 99 % of control | dose: 80.0 mg/kg/injection, schedule: Q01DX009 (ip), vehicle: saline with Tween-80 93 % of control

CC1(C)C[C@H](O)[C@H]2O[C@@]2(C)C1
inactive: dose: 100.0 mg/kg/injection, schedule: Q04DX002 (ip), vehicle: saline 95 % of control | dose: 200.0 mg/kg/injection, schedule: Q04DX002 (ip), vehicle: saline 96 % of control | dose: 400.0 mg/kg/injection, schedule: Q04DX002 (ip), vehicle: saline 105 % of control

O=C1c2ccccc2C(=O)N1C/C=C\c1ccccc1
inactive: [3] 102 % of control | [4] 102 % of control | [5] 107 % of control

COc1ccc(OC)c2c(Cl)cc(NCCCN3CCN(CCCNc4cc(Cl)c5c(OC)ccc(OC)c5n4)CC3)nc12
inactive: [1] 97 % of control | [2] 93 % of control | dose: 200.0 mg/kg/injection, schedule: Q01DX005 (ip), vehicle: Klucel (hydroxypropylcellulose) (HPC) 90 % of control

O=C(O)/C=C/S(=O)(=O)c1ccc(Cl)cc1
inactive: dose: 5.0 mg/kg/injection, schedule: Q01DX009 (ip), vehicle: Klucel (hydroxypropylcellulose) (HPC) 89 % of control | dose: 10.0 mg/kg/injection, schedule: Q01DX009 (ip), vehicle: Klucel (hydroxypropylcellulose) (HPC) 98 % of control | dose: 20.0 mg/kg/injection, schedule: Q01DX009 (ip), vehicle: Klucel (hydroxypropylcellulose) (HPC) 96 % of control | dose: 40.0 mg/kg/injection, schedule: Q01DX009 (ip), vehicle: Klucel (hydroxypropylcellulose) (HPC) 99 % of control

CC1=C(C)NC(C)=C(C)N1
inactive: [6] 97 % of control | [7] 95 % of control | [8] 97 % of control

O=C(N/N=C/c1cccc(O)c1O)N/N=C/c1cccc(O)c1O
inactive: dose: 25.0 mg/kg/injection, schedule: Q01DX009 (ip), vehicle: distilled water + Tween-80 104 % of control and 109 % of control | dose: 50.0 mg/kg/injection, schedule: Q01DX009 (ip), vehicle: distilled water + Tween-80 109 % of control (2×) and 116 % of control | dose: 100.0 mg/kg/injection, schedule: Q01DX009 (ip), vehicle: distilled water + Tween-80 118 % of control and 119 % of control | dose: 200.0 mg/kg/injection, schedule: Q01DX009 (ip), vehicle: distilled water + Tween-80 118 % of control and 95 % of control | dose: 400.0 mg/kg/injection, schedule: Q01DX009 (ip), vehicle: distilled water + Tween-80 91 % of control

O=C1CCC2CCc3ccccc3N12 (configuration not stated)
inactive: dose: 100.0 mg/kg/injection, schedule: Q04DX002 (ip), vehicle: other 102 % of control | dose: 200.0 mg/kg/injection, schedule: Q04DX002 (ip), vehicle: other 96 % of control | dose: 400.0 mg/kg/injection, schedule: Q04DX002 (ip), vehicle: other 103 % of control

Cc1ccc(N2C(=O)c3cccc4c(N)c(S(=O)(=O)O)cc(c34)C2=O)cc1
inactive: [6] 108 % of control | [7] 104 % of control | [8] 100 % of control

CN(CC#CC#CCN(C)c1ccccc1)c1ccccc1
inactive: [9] 102 % of control | [10] 102 % of control | [11] 102 % of control

C=C1CC2(CCCc3ccccc32)OC1=O (configuration not stated)
inactive: [3] 101 % of control | [4] 102 % of control | [5] 101 % of control

COC(=O)C12CN(C)CC(C(=O)OC)(C1=O)C(c1ccccn1)N(C)C2c1ccccn1 (configuration not stated)
inactive: dose: 60.0 mg/kg/injection, schedule: Q01DX005 (ip), vehicle: saline with Tween-80 100 % of control | dose: 120.0 mg/kg/injection, schedule: Q01DX005 (ip), vehicle: saline with Tween-80 98 % of control | dose: 240.0 mg/kg/injection, schedule: Q01DX005 (ip), vehicle: saline with Tween-80 98 % of control

Cn1c([N+](=O)[O-])cnc1-c1nc(/C=N/N2CCS(=O)(=O)CC2)cs1
inactive: dose: 25.0 mg/kg/injection, schedule: Q01DX009 (ip), vehicle: saline with Tween-80 96 % of control | [12] 96 % of control | [13] 90 % of control

COC(=O)c1ccnc2nc[nH]c12
inactive: dose: 100.0 mg/kg/injection, schedule: Q01DX001 (ip), vehicle: water 103 % of control | dose: 200.0 mg/kg/injection, schedule: Q01DX001 (ip), vehicle: water 104 % of control | dose: 400.0 mg/kg/injection, schedule: Q01DX001 (ip), vehicle: water 104 % of control

O=C(CCN1CCOCC1)c1ccccc1
inactive: dose: 12.5 mg/kg/injection, schedule: Q01DX009 (ip), vehicle: saline 100 % of control | dose: 25.0 mg/kg/injection, schedule: Q01DX009 (ip), vehicle: saline 101 % of control | [6] 100 % of control | [7] 104 % of control | [8] 103 % of control

CC(C)NC(=O)OCc1c(COC(=O)NC(C)C)c(-c2ccc(Cl)c(Cl)c2)n2c1SCC2
inactive: dose: 25.0 mg/kg/injection, schedule: Q01DX005 (ip), vehicle: saline with Tween-80 105 % of control | [9] 115 % of control | [10] 116 % of control and 121 % of control | [11] 117 % of control and 123 % of control | dose: 400.0 mg/kg/injection, schedule: Q01DX005 (ip), vehicle: saline with Tween-80 122 % of control

CCOC(=O)c1ccc(NC(=O)OCc2ccccc2)cc1
inactive: [12] 91 % of control | [13] 86 % of control | dose: 200.0 mg/kg/injection, schedule: Q01DX009 (ip), vehicle: saline with Tween-80 96 % of control | dose: 400.0 mg/kg/injection, schedule: Q01DX009 (ip), vehicle: saline with Tween-80 107 % of control

CC1=NN(C(=O)c2ccncc2)C(=O)C1N=Nc1ccc2ccccc2c1 (configuration not stated)
inactive: [12] 101 % of control | [13] 102 % of control
